# Reference: patent US11787785B2 (NOVARTIS AG, priority 2021, dated 2023)
# Target: T1, WIZ protein (HiBit-WIZ fusion protein) (Homo sapiens, UniProt O95785+Q96SW2)
# T1 construct: expressed in transfected cells
# Test: Quantification of WIZ protein levels in HiBit tag fusion protein assay (WIZ HiBit assay in 293T cells)
# Type: cell-based
# Design: remaining activity / Dmax: dose or concentration left out as unconfirmed
# Conditions: for Dmax at 25 µM / remaining activity at 25 µM / Dmax / remaining activity: HEK-293T; for Dmax at 25 µM: 100 − Amax; for Dmax at 25 µM / remaining activity at 25 µM: 293T cells; for Dmax at 25 µM / Dmax: read-out: % degradation of WIZ (100 − Amax); for remaining activity at 25 µM: DMSO-normalized, curve-fitted percentage of WIZ-HiBit remaining at 25 uM; for remaining activity at 25 µM / remaining activity: read-out: WIZ Amax; for DC50: WIZ HiBit assay in 293T cells, 10-point, 5-fold dose response, highest concentration 25 μM, about 18 hours, read-out: WIZ AC50
# Summary of the method: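 HiBit-tagged WIZ (N-terminal tag, HSVTK promoter) stably expressed single-copy in 293T cells; 10-point 1:5 compound series, top 25 μM, ~18 h at 37 °C. Lytic HiBit/LgBit luminescence read; Amax = curve-fitted % WIZ-HiBit remaining at 25 μM, DMSO normalized to 100%.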
# T1 sequence (O95785 whole entry, the tested form may be a part): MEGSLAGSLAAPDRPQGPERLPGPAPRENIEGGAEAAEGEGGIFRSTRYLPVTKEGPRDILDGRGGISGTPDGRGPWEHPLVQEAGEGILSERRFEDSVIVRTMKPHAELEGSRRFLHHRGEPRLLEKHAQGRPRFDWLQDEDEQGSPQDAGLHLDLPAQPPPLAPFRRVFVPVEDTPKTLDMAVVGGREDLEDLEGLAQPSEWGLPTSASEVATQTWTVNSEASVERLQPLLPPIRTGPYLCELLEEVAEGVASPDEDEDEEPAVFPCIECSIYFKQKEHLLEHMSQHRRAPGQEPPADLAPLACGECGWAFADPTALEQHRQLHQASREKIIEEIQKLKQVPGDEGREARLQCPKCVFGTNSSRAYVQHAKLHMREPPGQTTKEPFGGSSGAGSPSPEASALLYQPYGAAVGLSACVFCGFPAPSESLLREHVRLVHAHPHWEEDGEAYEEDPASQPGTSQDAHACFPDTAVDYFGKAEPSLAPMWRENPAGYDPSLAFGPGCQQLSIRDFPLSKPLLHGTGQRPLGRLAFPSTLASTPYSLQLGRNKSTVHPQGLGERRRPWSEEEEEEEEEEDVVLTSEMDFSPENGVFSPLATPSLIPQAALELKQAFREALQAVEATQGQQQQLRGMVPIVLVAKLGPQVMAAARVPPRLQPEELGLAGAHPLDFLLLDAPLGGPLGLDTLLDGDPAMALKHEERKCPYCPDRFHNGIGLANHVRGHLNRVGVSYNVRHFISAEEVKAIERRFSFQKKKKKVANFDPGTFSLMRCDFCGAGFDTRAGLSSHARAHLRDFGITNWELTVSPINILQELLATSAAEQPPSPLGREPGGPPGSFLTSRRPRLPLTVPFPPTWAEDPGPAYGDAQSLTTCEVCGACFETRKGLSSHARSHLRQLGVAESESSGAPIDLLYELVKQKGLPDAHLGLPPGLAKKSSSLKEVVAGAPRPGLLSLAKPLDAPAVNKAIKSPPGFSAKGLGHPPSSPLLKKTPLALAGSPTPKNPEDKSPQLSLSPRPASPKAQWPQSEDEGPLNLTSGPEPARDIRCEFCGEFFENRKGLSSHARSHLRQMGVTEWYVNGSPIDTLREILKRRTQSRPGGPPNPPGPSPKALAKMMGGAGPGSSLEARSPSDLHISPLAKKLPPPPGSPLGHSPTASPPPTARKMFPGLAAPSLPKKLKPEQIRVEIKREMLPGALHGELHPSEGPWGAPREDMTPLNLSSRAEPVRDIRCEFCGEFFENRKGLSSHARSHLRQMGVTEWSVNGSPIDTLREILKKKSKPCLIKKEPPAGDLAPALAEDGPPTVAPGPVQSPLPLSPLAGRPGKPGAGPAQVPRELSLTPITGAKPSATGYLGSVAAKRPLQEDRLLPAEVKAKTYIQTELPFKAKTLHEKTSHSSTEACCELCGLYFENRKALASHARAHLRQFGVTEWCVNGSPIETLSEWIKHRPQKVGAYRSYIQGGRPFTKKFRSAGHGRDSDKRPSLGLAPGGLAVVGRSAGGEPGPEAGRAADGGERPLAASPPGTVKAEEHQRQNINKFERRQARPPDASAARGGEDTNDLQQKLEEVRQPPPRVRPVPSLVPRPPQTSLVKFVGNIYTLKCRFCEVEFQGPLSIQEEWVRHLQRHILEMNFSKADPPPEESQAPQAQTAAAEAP
# T1 sequence (Q96SW2 whole entry, the tested form may be a part): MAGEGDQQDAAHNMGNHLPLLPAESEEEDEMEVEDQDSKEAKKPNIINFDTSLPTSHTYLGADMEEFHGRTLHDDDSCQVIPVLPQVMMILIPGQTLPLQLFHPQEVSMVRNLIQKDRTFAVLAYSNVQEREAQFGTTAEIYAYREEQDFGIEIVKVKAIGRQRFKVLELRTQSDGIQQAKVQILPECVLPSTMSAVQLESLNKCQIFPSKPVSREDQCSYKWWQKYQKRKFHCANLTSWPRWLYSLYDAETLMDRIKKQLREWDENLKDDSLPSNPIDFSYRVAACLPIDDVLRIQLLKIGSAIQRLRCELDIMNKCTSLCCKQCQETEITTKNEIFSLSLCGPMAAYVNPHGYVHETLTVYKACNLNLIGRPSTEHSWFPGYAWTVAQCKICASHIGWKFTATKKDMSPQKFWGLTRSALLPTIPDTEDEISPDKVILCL
# T1 sequence (Q16531 whole entry partner, the tested form may be a part): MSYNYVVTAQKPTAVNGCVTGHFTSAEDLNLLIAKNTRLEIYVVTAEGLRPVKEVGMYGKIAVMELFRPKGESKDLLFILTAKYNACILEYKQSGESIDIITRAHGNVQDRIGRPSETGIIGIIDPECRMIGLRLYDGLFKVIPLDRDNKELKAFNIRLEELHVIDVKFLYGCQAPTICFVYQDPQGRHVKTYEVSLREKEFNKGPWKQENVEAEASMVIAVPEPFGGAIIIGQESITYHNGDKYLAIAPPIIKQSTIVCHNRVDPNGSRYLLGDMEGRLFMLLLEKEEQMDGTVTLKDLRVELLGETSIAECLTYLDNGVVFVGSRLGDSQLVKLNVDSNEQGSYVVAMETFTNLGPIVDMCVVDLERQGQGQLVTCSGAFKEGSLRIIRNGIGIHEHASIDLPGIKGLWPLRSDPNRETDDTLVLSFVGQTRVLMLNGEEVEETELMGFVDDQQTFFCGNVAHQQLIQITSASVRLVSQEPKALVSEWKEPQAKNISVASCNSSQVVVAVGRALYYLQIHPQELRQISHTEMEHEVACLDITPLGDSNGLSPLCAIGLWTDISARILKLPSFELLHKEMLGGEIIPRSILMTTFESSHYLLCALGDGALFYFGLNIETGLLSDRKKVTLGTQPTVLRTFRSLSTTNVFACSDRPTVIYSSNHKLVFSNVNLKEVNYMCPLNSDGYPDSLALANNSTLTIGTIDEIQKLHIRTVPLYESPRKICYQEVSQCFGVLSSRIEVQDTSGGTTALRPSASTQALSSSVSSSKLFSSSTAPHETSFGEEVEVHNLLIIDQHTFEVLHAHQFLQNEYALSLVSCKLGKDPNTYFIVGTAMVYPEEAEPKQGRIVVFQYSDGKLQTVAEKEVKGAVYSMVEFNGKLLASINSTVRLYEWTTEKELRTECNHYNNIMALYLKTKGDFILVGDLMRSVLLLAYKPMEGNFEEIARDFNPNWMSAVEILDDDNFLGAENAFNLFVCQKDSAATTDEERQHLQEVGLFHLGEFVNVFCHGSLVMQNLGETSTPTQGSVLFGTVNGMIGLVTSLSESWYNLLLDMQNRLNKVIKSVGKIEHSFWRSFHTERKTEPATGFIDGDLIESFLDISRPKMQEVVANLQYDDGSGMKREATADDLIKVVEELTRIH
SMILES,Dmax at 25 µM [%],remaining activity at 25 µM [%],DC50 [nM],Dmax [%],remaining activity [%]
"O=C1CCN(c2cnn3ccc(CC4CCN(Cc5ccccc5)CC4)cc23)C(=O)N1 [Example 29, 1-(5-((1-benzylpiperidin-4-yl)methyl)pyrazolo[1,5-a]pyridin-3-yl)dihydropyrimidine-2,4(1H,3H)-dione]",74,26,232,,
"O=C1CCN(c2cnn3ccc(CC4CCN(CC5CCCCCC5)CC4)cc23)C(=O)N1 [Example 8, 1-(5-((1-(cycloheptylmethyl)piperidin-4-yl)methyl)pyrazolo[1,5-a]pyridin-3-yl)dihydropyrimidine-2,4(1H,3H)-dione]",86,14,8,,
"CC(C)(O)CN1CCN(Cc2ccn3ncc(N4CCC(=O)NC4=O)c3c2)CC1 [Example 183, 1-(5-((4-(2-hydroxy-2-methylpropyl)piperazin-1-yl)methyl)pyrazolo[1,5-a]pyridin-3-yl)dihydropyrimidine-2,4(1H,3H)-dione]",65,35,468,,
O=C1CCN(c2cnn3ccc(CN4CCN(CC5CCC(F)(F)CC5)CC4)cc23)C(=O)N1 [Example 157],83,17,22,,
C[C@H]1CN(Cc2ccn3ncc(N4CCC(=O)NC4=O)c3c2)CCN1CC1CCCC1 [Example 212],84,16,29,,
"CC(C)CN1CCN(Cc2ccn3ncc(N4CCC(=O)NC4=O)c3c2)CC1(C)C [Example 233, 1-(5-((4-isobutyl-3,3-dimethylpiperazin-1-yl)methyl)pyrazolo[1,5-a]pyridin-3-yl)dihydropyrimidine-2,4(1H,3H)-dione]",40,60,589,,
CC(C)CN1CC[C@H](Cc2ccn3ncc(N4CCC(=O)NC4=O)c3c2)C[C@@H]1C [Example 72],87,13,6,,
"O=C1CCN(c2cnn3ccc(CN4CCN(CCC5CCCCC5)CC4)cc23)C(=O)N1 [Example 187, 1-(5-((4-(2-cyclohexylethyl)piperazin-1-yl)methyl)pyrazolo[1,5-a]pyridin-3-yl)dihydropyrimidine-2,4(1H,3H)-dione]",80,20,20,,
C[C@H]1CN(CC2CCOCC2)CCN1Cc1ccn2ncc(N3CCC(=O)NC3=O)c2c1 [Example 223],51,49,877,,
C[C@@H]1CN(CC2CCCCC2)CCN1Cc1ccn2ncc(N3CCC(=O)NC3=O)c2c1 [Example 218],71,29,68,,
C[C@@H]1CN(Cc2ccn3ncc(N4CCC(=O)NC4=O)c3c2)CCN1CC1CCOCC1 [Example 217],75,25,92,,
"CC[C@H]1CN(Cc2ccn3ncc(N4CCC(=O)NC4=O)c3c2)CCN1CC(C)C [Example 228, (S)-1-(5-((3-ethyl-4-isobutylpiperazin-1-yl)methyl)pyrazolo[1,5-a]pyridin-3-yl)dihydropyrimidine-2,4(1H,3H)-dione]",55,45,704,,
"O=C1CCN(c2cnn3ccc(CC4CCN(CC5CCC(F)(F)CC5)CC4)cc23)C(=O)N1 [Example 4, 1-(5-((1-((4,4-difluorocyclohexyl)methyl)piperidin-4-yl)methyl)pyrazolo[1,5-a]pyridin-3-yl)dihydropyrimidine-2,4(1H,3H)-dione]",90,10,5,,
C[C@H]1C[C@H](Cc2ccn3ncc(N4CCC(=O)NC4=O)c3c2)CCN1CC1CCC1 [Example 146],82,18,51,,
C[C@@H]1CN(Cc2ccn3ncc(N4CCC(=O)NC4=O)c3c2)CCN1CC1CCCCC1 [Example 214],65,35,151,,
C[C@@H]1C[C@H](Cc2ccn3ncc(N4CCC(=O)NC4=O)c3c2)CCN1CC1CCCCC1 [Example 76],81,19,36,,
C[C@H]1CN(CC2CCC2)CCN1Cc1ccn2ncc(N3CCC(=O)NC3=O)c2c1 [Example 224],45,55,854,,
"O=C1CCN(c2cnn3ccc(CC4CCN(CC5(F)CCCCC5)CC4)cc23)C(=O)N1 [Example 107, 1-(5-((1-((1-fluorocyclohexyl)methyl)piperidin-4-yl)methyl)pyrazolo[1,5-a]pyridin-3-yl)dihydropyrimidine-2,4(1H,3H)-dione]",78,22,31,,
"C[C@H]1CN(Cc2ccn3ncc(N4CCC(=O)NC4=O)c3c2)CCN1C1CCC1 [Example 329, (S)-1-(5-((4-cyclobutyl-3-methylpiperazin-1-yl)methyl)pyrazolo[1,5-a]pyridin-3-yl)dihydropyrimidine-2,4(1H,3H)-dione]",,,166,83,17
"COc1ccnc(N2CCC(Cc3ccn4ncc(N5CCC(=O)NC5=O)c4c3)CC2)n1 [Example 69, 1-(5-((1-(4-methoxypyrimidin-2-yl)piperidin-4-yl)methyl)pyrazolo[1,5-a]pyridin-3-yl)dihydropyrimidine-2,4(1H,3H)-dione]",,,350,35,65
"O=C1CCN(c2cnn3ccc(CC4CCN(Cc5ccc(C(F)(F)F)cc5)CC4)cc23)C(=O)N1 [Example 57, 1-(5-((1-(4-(trifluoromethyl)benzyl)piperidin-4-yl)methyl)pyrazolo[1,5-a]pyridin-3-yl)dihydropyrimidine-2,4(1H,3H)-dione]",63,37,107,,

# Now from value to compound, other results behind:
Dmax at 25 µM [%],remaining activity at 25 µM [%],DC50 [nM],SMILES,Dmax [%],remaining activity [%]
86,14,400,"Cc1cn(-c2cnn3ccc(C[C@@H]4CCN(CC5CC5)[C@@H](C)C4)cc23)c(=O)[nH]c1=O [Example 348, 1-(5-(((2S,4R)-1-(cyclopropylmethyl)-2-methylpiperidin-4-yl)methyl)pyrazolo[1,5-a]pyridin-3-yl)-5-methylpyrimidine-2,4(1H,3H)-dione]",,
46,54,495,"C[C@H]1CN(Cc2ccn3ncc(N4CCC(=O)NC4=O)c3c2)CCN1C(=O)C1CCCC1 [Example 343, (S)-1-(5-((4-(cyclopentanecarbonyl)-3-methylpiperazin-1-yl)methyl)pyrazolo[1,5-a]pyridin-3-yl)dihydropyrimidine-2,4(1H,3H)-dione]",,
79,21,33,C[C@H]1C[C@H](Cc2ccn3ncc(N4CCC(=O)NC4=O)c3c2)CCN1C(=O)C1CCC1 [Example 289],,
80,20,24,C[C@H]1C[C@H](Cc2ccn3ncc(N4CCC(=O)NC4=O)c3c2)CCN1C(=O)N1CCCC1 [Example 295],,
79,21,20,"C[C@H]1C[C@H](Cc2ccn3ncc(N4CCC(=O)NC4=O)c3c2)CCN1CC(F)(F)F [Example 275, 1-(5-(((2S,4R)-2-methyl-1-(2,2,2-trifluoroethyl)piperidin-4-yl)methyl)pyrazolo[1,5-a]pyridin-3-yl)dihydropyrimidine-2,4(1H,3H)-dione]",,
83,17,33,"O=C1CCN(c2cnn3ccc(CN4CCN(C5CCCCC5)CC4)cc23)C(=O)N1 [Example 338, 1-(5-((4-cyclohexylpiperazin-1-yl)methyl)pyrazolo[1,5-a]pyridin-3-yl)dihydropyrimidine-2,4(1H,3H)-dione]",,
86,14,31,"C[C@H]1CN(Cc2ccn3ncc(N4CCC(=O)NC4=O)c3c2)CCN1CC1(C)CCC1 [Example 322, (S)-1-(5-((3-methyl-4-((1-methylcyclobutyl)methyl)piperazin-1-yl)methyl)pyrazolo[1,5-a]pyridin-3-yl)dihydropyrimidine-2,4(1H,3H)-dione]",,
81,19,1,"O=C1CCN(c2cnn3ccc(CC4CCN(C5CCC5)CC4)cc23)C(=O)N1 [Example 282, 1-(5-((1-cyclobutylpiperidin-4-yl)methyl)pyrazolo[1,5-a]pyridin-3-yl)dihydropyrimidine-2,4(1H,3H)-dione]",,
54,46,1700,C[C@H]1C[C@H](Cc2ccn3ncc(N4CCC(=O)NC4=O)c3c2)CCN1C(=O)C1CCN(C)CC1 [Example 290],,
87,13,10,"C[C@H]1CN(Cc2ccn3ncc(N4CCC(=O)NC4=O)c3c2)CCN1C[C@H]1C[C@@H](F)[C@@H](F)C1 [Example 318, 1-(5-(((S)-4-(((1r,3R,4S)-3,4-difluorocyclopentyl)methyl)-3-methylpiperazin-1-yl)methyl)pyrazolo[1,5-a]pyridin-3-yl)dihydropyrimidine-2,4(1H,3H)-dione]",,
